Results on two compounds are retold here after article PMC4306520 (Journal of Medicinal Chemistry, 2014).

Structures are written as SMILES.

The test system of series [1] is BxPC-3 cells. The series can be described thus: Apoptosis assay. Type of series: cell-based, human.
Series [2] has as its system BxPC-3 cells. The series can be described thus: Intracellular pH. It counts as cell-based, human. The conditions noted are these: BxPC-3, different concentrations, 72 h.
Series [3] deals with BxPC-3 cells. The series can be described thus: Extracellular pH. It counts as cell-based, human. The conditions noted are these: BxPC-3, 100 μM, 72 h, data not shown.
Series [4] has as its target FASN in PANC-1 cell lysate (Homo sapiens, UniProt P49327). The series is described as follows: Serine hydrolase FP probe displacement assay, FASN. It counts as binding. The conditions noted are these: 5 μM FP probe.
Series [5] deals with other Ser hydrolases in PANC-1 cell lysate. The series is described as follows: Serine hydrolase FP probe displacement assay, other serine hydrolases. Type of series: binding, human. To be noted: 5 μM FP probe.
In a further series the test system is FASN. The series can be described thus: Western blot of FASN expression. It counts as cell-based, human. (Immunoblotting shows a protein as a band on a membrane.)
Series [6] has as its system BxPC-3 cells. The series is described as follows: MTT assay with palmitate supplementation. It counts as cell-based, human.
The test system of series [7] is PANC-1/FASN and PANC-1/Vec cells. The series can be described thus: Colony formation survival assay, PANC-1/FASN vs PANC-1/Vec. Type of series: cell-based, human.

FASN in PANC-1 cell lysate, sequence (P49327 whole entry): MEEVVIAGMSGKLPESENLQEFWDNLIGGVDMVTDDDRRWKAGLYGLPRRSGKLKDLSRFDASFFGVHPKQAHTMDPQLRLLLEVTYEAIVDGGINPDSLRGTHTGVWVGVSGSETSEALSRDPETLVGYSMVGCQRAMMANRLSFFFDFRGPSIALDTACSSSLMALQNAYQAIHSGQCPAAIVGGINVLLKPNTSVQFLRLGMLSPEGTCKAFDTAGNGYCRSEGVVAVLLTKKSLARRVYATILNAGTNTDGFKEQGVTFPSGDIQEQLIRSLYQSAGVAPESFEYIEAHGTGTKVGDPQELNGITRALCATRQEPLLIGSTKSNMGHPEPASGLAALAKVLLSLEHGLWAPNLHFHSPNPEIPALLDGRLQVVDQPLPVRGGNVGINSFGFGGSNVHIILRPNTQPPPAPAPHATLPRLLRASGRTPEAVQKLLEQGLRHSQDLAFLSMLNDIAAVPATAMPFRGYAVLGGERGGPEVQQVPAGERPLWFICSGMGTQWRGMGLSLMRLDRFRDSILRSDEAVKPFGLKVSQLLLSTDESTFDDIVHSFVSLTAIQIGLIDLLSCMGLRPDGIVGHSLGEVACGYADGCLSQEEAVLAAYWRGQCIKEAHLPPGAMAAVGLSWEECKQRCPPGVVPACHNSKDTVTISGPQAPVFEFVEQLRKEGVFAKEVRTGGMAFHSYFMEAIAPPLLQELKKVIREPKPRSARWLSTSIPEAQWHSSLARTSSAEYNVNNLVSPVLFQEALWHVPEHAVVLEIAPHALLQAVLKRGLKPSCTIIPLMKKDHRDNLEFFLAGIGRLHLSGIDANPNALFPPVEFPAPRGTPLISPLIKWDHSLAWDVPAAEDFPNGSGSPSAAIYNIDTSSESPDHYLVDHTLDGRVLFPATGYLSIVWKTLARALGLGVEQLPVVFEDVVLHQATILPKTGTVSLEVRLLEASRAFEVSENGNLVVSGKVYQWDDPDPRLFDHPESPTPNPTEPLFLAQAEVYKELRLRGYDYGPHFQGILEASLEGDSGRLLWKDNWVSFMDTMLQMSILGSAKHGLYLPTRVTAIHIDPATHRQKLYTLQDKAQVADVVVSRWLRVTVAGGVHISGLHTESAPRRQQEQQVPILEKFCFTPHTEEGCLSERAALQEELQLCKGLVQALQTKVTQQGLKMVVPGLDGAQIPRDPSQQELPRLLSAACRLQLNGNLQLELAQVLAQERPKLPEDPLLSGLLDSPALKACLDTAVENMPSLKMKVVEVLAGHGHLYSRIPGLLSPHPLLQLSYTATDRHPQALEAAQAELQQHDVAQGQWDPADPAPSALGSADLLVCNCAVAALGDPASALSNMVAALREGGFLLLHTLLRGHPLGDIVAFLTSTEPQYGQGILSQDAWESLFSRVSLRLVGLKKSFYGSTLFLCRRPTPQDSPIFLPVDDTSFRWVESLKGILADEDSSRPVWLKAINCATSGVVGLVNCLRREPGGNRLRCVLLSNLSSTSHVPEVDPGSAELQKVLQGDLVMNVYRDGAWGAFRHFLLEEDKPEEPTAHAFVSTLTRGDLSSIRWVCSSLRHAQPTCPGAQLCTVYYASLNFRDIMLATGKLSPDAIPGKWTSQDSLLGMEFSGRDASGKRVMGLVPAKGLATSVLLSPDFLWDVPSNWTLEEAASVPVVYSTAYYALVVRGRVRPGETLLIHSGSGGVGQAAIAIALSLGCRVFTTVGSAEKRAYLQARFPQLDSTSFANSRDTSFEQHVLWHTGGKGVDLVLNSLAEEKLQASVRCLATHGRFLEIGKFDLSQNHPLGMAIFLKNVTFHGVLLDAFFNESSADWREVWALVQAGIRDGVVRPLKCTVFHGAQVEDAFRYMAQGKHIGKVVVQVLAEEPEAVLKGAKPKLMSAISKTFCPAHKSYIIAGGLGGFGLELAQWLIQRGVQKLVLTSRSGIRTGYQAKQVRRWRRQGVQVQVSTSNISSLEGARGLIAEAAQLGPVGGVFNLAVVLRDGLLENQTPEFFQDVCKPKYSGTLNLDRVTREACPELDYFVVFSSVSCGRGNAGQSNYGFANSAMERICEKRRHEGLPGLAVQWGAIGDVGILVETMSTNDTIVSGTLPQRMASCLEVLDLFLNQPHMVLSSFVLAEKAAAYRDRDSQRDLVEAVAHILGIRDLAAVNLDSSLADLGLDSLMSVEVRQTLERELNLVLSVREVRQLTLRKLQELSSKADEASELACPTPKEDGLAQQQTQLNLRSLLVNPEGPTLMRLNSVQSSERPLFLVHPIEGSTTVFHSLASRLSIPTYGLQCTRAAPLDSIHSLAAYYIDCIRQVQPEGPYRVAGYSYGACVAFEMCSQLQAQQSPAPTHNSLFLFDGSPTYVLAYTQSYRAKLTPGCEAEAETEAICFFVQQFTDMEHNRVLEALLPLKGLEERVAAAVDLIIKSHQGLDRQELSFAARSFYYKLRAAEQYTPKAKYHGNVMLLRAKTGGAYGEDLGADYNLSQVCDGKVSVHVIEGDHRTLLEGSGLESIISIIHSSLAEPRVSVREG

Consider `Cc1c(OCC(F)(F)F)ccnc1C[S+]([O-])c1nc2ccccc2[nH]1` (centres unmarked) [Lansoprazole], for which, in the series on BxPC-3 cells [1] (3.75 μM palmitate), the “effect of palmitate supplementation on lansoprazole-induced apoptosis” value is “reduced lansoprazole-induced apoptosis”. Moreover, the “induction of apoptosis (DNA fragments, cleaved PARP-1)” value in the series on BxPC-3 cells [1] (ELISA 72 h, PARP Western blot 24 h) is “dose-dependently caused formation of DNA fragments and cleaved PARP-1”. The “effect on intracellular pH” value in the series on BxPC-3 cells [2] is on record as “no significant effect on intracellular pH”. Also, the “effect on extracellular pH” value with BxPC-3 cells [3] was “no change in extracellular pH”. Besides, the “inhibition of FP serine hydrolase probe labeling of FASN” value in series [4] is listed as “inhibited labeling of FASN by the FP probe in a dose-dependent manner”. In series [5], the “effect on binding of FP probe to other Ser hydrolases” value was “no effect on the binding of the FP probe to other Ser hydrolases”. Further, the “effect on total FASN level” value in the series with FASN (lansoprazole treatment, Figure 4D) is “no effect on the total FASN level”. Moreover, in the series on BxPC-3 cells [6] (3.75 μM palmitate), the “effect of palmitate supplementation on lansoprazole cytotoxicity” value is given as “significantly increased cellular resistance to lansoprazole”. In addition, in series [7], the “sensitivity of PANC-1/FASN cells versus PANC-1/Vec cells” value is reported as “significantly more sensitive to lansoprazole than the control PANC-1/Vec cells”.

Turning to `CCCCCCCCCCCCCCCC(=O)O` [palmitate], the “effect of palmitate on FASN expression” value in the series with FASN (3.75 μM palmitate, Figure 5B) is “did not reduce FASN expression”. In addition, in the series with BxPC-3 cells [6] (BxPC-3, 3.75 μM), the “effect of palmitate alone on cell survival” value is reported as “no significant effect on BxPC-3 cell survival”.
